The record followed here is paper PMC9195458, “Identification of antimalarial targets of chloroquine by a combined deconvolution strategy of ABPP and MS-CETSA” (Military Medical Research, 2022).

One assay deals with T1, falcilysin (Plasmodium falciparum, UniProt Q76NL8).
T1 construct: gene FLN; native protein in soluble parasite lysate
T1 sequence (Q76NL8 1-1193): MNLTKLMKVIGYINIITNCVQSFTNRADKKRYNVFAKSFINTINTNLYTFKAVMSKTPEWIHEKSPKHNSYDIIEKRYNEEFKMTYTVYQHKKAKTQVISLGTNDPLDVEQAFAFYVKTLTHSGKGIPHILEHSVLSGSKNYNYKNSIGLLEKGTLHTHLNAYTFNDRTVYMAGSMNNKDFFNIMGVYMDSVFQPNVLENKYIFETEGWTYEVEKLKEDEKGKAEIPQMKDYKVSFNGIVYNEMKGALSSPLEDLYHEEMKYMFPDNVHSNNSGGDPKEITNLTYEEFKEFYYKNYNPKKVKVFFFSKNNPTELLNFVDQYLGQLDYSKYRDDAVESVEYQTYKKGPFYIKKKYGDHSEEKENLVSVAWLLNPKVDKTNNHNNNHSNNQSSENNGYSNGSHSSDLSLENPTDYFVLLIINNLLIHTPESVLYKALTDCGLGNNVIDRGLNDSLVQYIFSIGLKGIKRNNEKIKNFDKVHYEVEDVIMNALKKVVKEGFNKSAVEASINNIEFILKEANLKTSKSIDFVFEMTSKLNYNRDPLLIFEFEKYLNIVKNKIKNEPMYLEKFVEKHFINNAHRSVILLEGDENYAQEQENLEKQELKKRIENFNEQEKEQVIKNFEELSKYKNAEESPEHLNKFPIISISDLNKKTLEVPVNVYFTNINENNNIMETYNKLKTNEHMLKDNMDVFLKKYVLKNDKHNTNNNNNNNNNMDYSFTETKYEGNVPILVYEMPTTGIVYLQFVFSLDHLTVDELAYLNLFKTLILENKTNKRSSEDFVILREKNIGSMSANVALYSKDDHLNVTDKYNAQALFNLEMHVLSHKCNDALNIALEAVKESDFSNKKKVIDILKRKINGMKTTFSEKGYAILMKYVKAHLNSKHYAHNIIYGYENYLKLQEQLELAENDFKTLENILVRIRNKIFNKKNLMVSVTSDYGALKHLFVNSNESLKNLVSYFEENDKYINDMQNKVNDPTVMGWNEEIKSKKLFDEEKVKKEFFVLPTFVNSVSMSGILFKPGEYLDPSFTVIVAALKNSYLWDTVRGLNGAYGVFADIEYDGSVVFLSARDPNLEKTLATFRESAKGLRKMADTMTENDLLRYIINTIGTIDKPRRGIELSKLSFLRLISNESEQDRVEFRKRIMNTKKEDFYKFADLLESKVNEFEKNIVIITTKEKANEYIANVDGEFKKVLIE
Nature of the assay: ITDR MS-CETSA thermal shift. Particulars: parasite lysate, CQ 0-300 µmol/L; heated at 37, 52 or 61 °C. The assay is classed as biochemical.

For the next assay, the target named is T2, plasmepsin IV (Plasmodium falciparum, UniProt Q8IM16).
T2 construct: gene PMIV; native protein in soluble parasite lysate
T2 sequence (Q8IM16 122-449): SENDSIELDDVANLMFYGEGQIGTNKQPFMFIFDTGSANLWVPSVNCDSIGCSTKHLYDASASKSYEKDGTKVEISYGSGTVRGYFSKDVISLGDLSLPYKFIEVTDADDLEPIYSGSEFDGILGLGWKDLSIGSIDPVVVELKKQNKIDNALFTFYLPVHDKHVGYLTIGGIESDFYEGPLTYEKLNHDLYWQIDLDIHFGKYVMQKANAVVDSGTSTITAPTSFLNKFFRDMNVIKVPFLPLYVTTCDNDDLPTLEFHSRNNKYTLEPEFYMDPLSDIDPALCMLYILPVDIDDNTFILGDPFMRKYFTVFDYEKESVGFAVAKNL
The assay is described as follows: ITDR MS-CETSA thermal shift. The assay is classed as biochemical. Particulars: parasite lysate, CQ 0-300 µmol/L; heated at 37, 52 or 61 °C.

Assay [1] concerns the target T3, PfPGK (Plasmodium falciparum, UniProt P27362).
T3 construct: gene PGK
T3 sequence (P27362 1-416): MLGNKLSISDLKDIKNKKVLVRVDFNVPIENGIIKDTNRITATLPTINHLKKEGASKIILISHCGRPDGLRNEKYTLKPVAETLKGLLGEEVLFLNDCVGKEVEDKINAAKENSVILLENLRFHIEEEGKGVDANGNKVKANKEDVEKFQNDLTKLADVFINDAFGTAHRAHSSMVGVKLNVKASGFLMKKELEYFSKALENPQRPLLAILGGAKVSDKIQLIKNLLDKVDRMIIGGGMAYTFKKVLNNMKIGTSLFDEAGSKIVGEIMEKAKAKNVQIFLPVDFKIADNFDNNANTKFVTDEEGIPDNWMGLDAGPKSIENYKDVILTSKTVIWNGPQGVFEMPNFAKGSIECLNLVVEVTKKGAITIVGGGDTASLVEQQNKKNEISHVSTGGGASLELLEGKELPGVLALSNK
Nature of the assay: SPR (BIAcore). It counts as binding. Particulars: read-out: KCQ-PfPGK. In general terms: SPR reads the build-up and loss of mass on a sensor chip optically.

The target in assay [2] is T4, PfTPI (Plasmodium falciparum, UniProt Q7KQM0).
T4 construct: gene TPI
T4 sequence (Q7KQM0 whole entry): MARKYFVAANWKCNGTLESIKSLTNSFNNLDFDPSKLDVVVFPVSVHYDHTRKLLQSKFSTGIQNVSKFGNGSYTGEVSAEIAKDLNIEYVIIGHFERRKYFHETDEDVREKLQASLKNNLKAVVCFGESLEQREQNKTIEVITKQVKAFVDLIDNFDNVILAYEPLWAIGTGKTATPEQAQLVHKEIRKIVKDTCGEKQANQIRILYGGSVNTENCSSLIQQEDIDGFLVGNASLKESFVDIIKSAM
The assay is described as follows: SPR (BIAcore). It counts as binding. The following applies: read-out: KCQ-PfTPI.

For assay [3], the target named is T5, PfPyrK (Plasmodium falciparum, UniProt C6KTA4).
T5 construct: gene PF3D7_0626800
T5 sequence (C6KTA4 1-511): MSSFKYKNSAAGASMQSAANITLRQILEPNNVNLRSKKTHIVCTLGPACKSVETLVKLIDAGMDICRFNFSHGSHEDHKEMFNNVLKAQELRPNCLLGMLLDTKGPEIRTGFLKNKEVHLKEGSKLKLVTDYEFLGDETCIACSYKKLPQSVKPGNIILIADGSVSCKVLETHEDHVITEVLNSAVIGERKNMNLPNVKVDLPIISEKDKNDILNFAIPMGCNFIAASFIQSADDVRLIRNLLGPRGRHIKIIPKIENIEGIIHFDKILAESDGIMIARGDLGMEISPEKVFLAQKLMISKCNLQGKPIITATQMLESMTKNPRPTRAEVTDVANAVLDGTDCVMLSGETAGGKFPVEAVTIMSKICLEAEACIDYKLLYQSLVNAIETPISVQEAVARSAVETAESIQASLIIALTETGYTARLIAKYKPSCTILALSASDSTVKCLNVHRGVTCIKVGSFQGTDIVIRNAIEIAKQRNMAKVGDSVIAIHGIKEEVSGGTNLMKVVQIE
The assay is described as follows: SPR (BIAcore). The assay is classed as binding. The following applies: read-out: KCQ-PfPyrK.

Assay [4] deals with T6, PfLDH (Plasmodium falciparum, UniProt Q76NM3).
T6 construct: gene PF3D7_1324900
T6 sequence (Q76NM3 1-316): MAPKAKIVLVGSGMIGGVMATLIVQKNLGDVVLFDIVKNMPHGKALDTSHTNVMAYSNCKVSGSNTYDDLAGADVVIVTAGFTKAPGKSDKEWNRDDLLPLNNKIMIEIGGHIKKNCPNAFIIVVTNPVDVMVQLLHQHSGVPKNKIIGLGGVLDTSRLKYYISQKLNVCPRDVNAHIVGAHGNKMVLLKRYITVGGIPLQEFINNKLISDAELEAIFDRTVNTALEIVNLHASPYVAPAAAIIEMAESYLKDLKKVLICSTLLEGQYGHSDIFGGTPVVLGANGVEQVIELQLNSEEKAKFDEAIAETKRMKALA
The assay is described as follows: SPR (BIAcore). It counts as binding. Particulars: read-out: KCQ-PfLDH.

Assay [5] concerns the target T6, PfLDH. The assay is described as follows: enzyme activity inhibition, dose-response. The following applies: recombinant protein. It counts as biochemical.
The next assay addresses T7, plasmepsin II (Plasmodium falciparum, UniProt Q8I6V3).
T7 construct: gene PMII; native protein in soluble parasite lysate
The assay is described as follows: ITDR MS-CETSA thermal shift. It counts as biochemical. The following applies: parasite lysate, CQ 0-300 µmol/L; heated at 37, 52 or 61 °C.

Assay [6] concerns the target T4, PfTPI. The assay is described as follows: enzyme activity inhibition, dose-response. The assay is classed as biochemical. Particulars: recombinant protein.
The target of assay [7] is T5, PfPyrK. The assay is described as follows: enzyme activity inhibition, dose-response. The following applies: recombinant protein. It counts as biochemical.
Assay [8] addresses T3, PfPGK. The assay is described as follows: enzyme activity inhibition, dose-response. It counts as biochemical. Particulars: recombinant protein.
Assay [9] concerns the target T8, PfOAT (Plasmodium falciparum, UniProt Q6LFH8).
T8 construct: gene OAT
T8 sequence (Q6LFH8 1-414): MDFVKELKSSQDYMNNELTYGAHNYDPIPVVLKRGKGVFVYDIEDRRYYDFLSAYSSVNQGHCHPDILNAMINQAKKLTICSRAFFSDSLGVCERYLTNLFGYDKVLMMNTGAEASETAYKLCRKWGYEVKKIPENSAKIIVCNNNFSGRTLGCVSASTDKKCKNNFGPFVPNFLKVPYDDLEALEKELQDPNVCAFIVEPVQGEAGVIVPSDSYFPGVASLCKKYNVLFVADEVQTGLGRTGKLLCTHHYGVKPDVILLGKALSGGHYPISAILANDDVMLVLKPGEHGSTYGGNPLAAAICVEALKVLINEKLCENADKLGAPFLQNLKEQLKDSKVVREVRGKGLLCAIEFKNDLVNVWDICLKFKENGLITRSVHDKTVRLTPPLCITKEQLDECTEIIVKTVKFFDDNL
Nature of the assay: SPR (BIAcore). It counts as binding. The following applies: read-out: KCQ-PfOAT.

Assay [10] concerns the target T8, PfOAT. The assay is described as follows: enzyme activity inhibition, dose-response. It counts as biochemical. Particulars: recombinant protein.
Assay [11] concerns the target T4, PfTPI. Nature of the assay: photo-affinity labelling, click TAMRA, in-gel fluorescence. The assay is classed as binding. Particulars: covalent photo-crosslink on UV 365 nm; recombinant protein; competed by excess CQ.
Assay [12] addresses T6, PfLDH. The description is as above. It counts as binding. Particulars: covalent photo-crosslink on UV 365 nm; recombinant protein; competed by excess CQ.
Assay [13] deals with T3, PfPGK. The assay is described as above. The assay is classed as binding. The following applies: covalent photo-crosslink on UV 365 nm; recombinant protein; competed by excess CQ.
Assay [14] deals with T8, PfOAT. The description is as above. The assay is classed as binding. The following applies: covalent photo-crosslink on UV 365 nm; recombinant protein; competed by excess CQ.
In assay [15] the target is T5, PfPyrK. Described as above. The assay is classed as binding. The following applies: covalent photo-crosslink on UV 365 nm; recombinant protein; competed by excess CQ.

T7 sequence (Q8I6V3 125-453): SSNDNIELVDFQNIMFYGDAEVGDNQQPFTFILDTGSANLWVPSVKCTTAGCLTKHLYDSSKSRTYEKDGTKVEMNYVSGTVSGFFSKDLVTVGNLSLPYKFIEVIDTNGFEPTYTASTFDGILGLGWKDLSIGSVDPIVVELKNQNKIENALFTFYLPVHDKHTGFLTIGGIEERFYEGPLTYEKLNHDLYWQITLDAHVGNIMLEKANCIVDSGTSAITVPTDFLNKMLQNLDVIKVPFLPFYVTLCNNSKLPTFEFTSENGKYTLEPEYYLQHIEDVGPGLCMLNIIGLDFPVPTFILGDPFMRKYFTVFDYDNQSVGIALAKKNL

With `CCN(CC)CCCC(C)Nc1ccnc2cc(Cl)ccc12` (stereo not drawn) [CQ], the thermal shift result is “falcilysin as well as other hemoglobin proteolytic enzymes” at falcilysin; “plasmepsin II and plasmepsin IV also showed significant thermal shift” at plasmepsin IV; “plasmepsin II and plasmepsin IV also showed significant thermal shift” at plasmepsin II. Moreover, the Kd at PfPGK [1] stood at 1.95 µM; on PfTPI [2] it was 1.18 µM; on PfPyrK [3], 0.85 µM; on PfLDH [4] it was 0.32 µM; at PfOAT [9], 1.91 µM. The “inhibition of enzymatic activity” value is “CQ inhibits the enzymatic activities of the recombinant PfLDH (a)” at PfLDH [5]; “PfPGK (d) and PfTPI (e) proteins in vitro in a dose-dependent manner” on PfTPI [6]; “CQ inhibits the enzymatic activities of the recombinant PfLDH (a), PfOAT (b), PfPyrK (c)” at PfPyrK [7]; “PfPGK (d) and PfTPI (e) proteins in vitro in a dose-dependent manner” on PfPGK [8]; “CQ inhibits the enzymatic activities of the recombinant PfLDH (a), PfOAT (b)” at PfOAT [10].

In the case of `C#CCOCCC1(CCOCc2cn(CCCCC(=O)N(CC)CCCC(C)Nc3ccnc4cc(Cl)ccc34)nn2)N=N1` (stereo not drawn) [CQP], the “photo-affinity labelling, click TAMRA, in-gel fluorescence” value at PfTPI [11] is “CQP specifically binds to recombinant PfLDH, PfOAT, PfPyrK, PfPGK, and PfTPI proteins”; on PfLDH [12] it was “CQP specifically binds to recombinant PfLDH, PfOAT, PfPyrK, PfPGK, and PfTPI proteins”; on PfPGK [13], “CQP specifically binds to recombinant PfLDH, PfOAT, PfPyrK, PfPGK, and PfTPI proteins”; on PfOAT [14], “CQP specifically binds to recombinant PfLDH, PfOAT, PfPyrK, PfPGK, and PfTPI proteins”; at PfPyrK [15] it was “CQP specifically binds to recombinant PfLDH, PfOAT, PfPyrK, PfPGK, and PfTPI proteins”.
